Test results published in patent publication US8691577B2, “Somatic embryogenesis of Jatropha curcas from ovules” (Joil (S) Pte Ltd., priority 2008, dated 2014).
“Also recorded” adds a separate entry of the source.

Assays:
[1] = tested on: mature somatic embryos of Jatropha curcas; test: Germination of somatic embryos and growth of plantlets on MS germination medium; format: cell-based; conditions: for growth of germinated plantlets: added to germination medium (MS with IBA and GA3); for germination of somatic embryos: auxin in combination with GA3 (0.72, 1.44, 2.88, 5.76 μM) in MS medium, IBA 1.23-4.92 μM, IAA 1.42-8.56 μM, NAA 1.34-8.04 μM
Description: (§1) The initiation medium was MS basal medium (MS mineral salts and vitamins) supplemented with sucrose (3%) as the carbon source and included phytoagar (0.8%) as a gelling agent. The pH of the medium was 5.8. The germination medium was MS basal medium supplemented with sucrose (3%) as the carbon source and included phytogel (0.25%) as a gelling agent. The pH of the medium was 5.8. The media were dispensed into sterilized Petri dish (90×15 mm size, plastic polycarbonate, Canada). The chemicals used for media preparations were of analytical grade (Duchefa Biochemie, Haarlem, The Netherlands and Sigma Aldrich, Inc., St Louis, USA).
(§2) The sterilized flower buds were dissected using stereo microscope and the ovules were isolated and injured using dissection needle. The injured ovule explants were inoculated onto initiation medium supplemented with different phytohormones and incubated in dark for 40 days. The callus induced from these ovules was transferred to the fresh initiation medium and cultured in the light (16/8 h (light/dark) photoperiod period, light intensity of 25 μE m^−2s^−1) for somatic embryo development and maturation. The callus with developing and maturing somatic embryos were subcultured every two weeks. The mature cotyledon shaped somatic embryos that developed from this embryogenic callus were transferred to germination medium for germination. The germinating somatic embryos were subcultured every two weeks. The germinated plantlets were hardened and transferred to green house. All cultures were maintained at 25° C.±2° C. with 55%-60% relative humidity. Approximately 12-15 mature cotyledon shaped embryos were developed per 100 mg of embryogenic callus, and 95% of the somatic embryos were developed.

[2] = tested on: ovule explants of Jatropha curcas; test: Induction of embryogenic callus from ovule explants on MS initiation medium; format: cell-based
Description: as §1
Different hormones were added to the media for the development of the method according to the present invention. In general, the media contained a reduced concentration of phytohormones. The hormones that were tested in the media were phytohormones that will affect growth in the desired manner during different stages of tissue culture. Examples of phytohormones that were tested include natural or synthetic auxin (2,4-D, indole-3-acetic acid (IAA), IBA), cytokinin (BA, KN,), GA3, or cytokinin-active urea derivatives (such as TDZ). The hormones were tested singly or in combination. For induction of embryogenic callus, only 2,4-D (2.26, 4.52, 6.78 and 9.02 μM) was effective.
as §2

[3] = tested on: leaf explants of J. curcas; conditions: Jha et al. (2007), cited from earlier work
[4] = tested on: embryogenic callus of Jatropha curcas; test: Production of double haploid plantlets by treating embryogenic callus with a mitotic inhibitor; format: cell-based
Protocol: Double haploid plants are produced by treating the embryogenic callus with a mitotic inhibitor. In one embodiment, the embryogenic callus is treated with the mitotic inhibitor for one day to three days, preferably three days. In one embodiment, the mitotic inhibitor is colchicine. In one embodiment, the embryogenic callus is treated with 0.1% to 0.5%, preferably 0.5% colchicine. In another embodiment, the mitotic inhibitor is oryzalin. In one embodiment, the embryogenic callus is treated with 0.1% to 0.5%, preferably 0.5% oryzalin. The mitotic inhibitor is added to the embryogenic callus induction medium, described above, prior to transfer of the embryogenic callus to the fresh initiation medium. The culture conditions for culturing in the presence of the mitotic inhibitor is the same as for somatic embryogenic callus induction. Following treatment with the mitotic inhibitor, the treated embryogenic callus is placed on fresh initiation medium for the development and maturation of somatic embryos and cultured as described above. The mature somatic embryos are placed on the germination medium and cultured as described above to germinate double haploid plantlets as described above.
Embryogenic callus prepared as described in Example 5 which is above to develop into somatic embryos (after forty days of embryogenic callus induction) was treated with different concentration of colchicines (0.1-1%) for three-days. The culture condition (temperature, photoperiod and light) are same as described above. After the colchicine treatment, the treated embryogenic callus was transferred to fresh initiation medium (MS medium containing 2,4-D (6.78 μM)) and cultured as described in Example 5 for the development of somatic embryos. The mature somatic embryos were transferred to germination media (MS medium fortified with GA3 and IBA) and cultured as described in Example 5 for plantlet development.

[5] = tested on: embryogenic callus from ovules of Jatropha curcas; test: Somatic embryo development and maturation from embryogenic callus; format: cell-based
Protocol: as §2
Induction of callus occurred in MS medium containing different auxins and cytokinins individually as well as in combinations.

[6] = hormone alone in MS initiation medium, 2,4-D 2.26, 4.52, 6.78, 9.02 μM, IAA 0.71-5.70 μM, IBA 0.615-4.92 μM

## Nc1ncnc2nc[nH]c12.O=S(=O)(O)O [AdSO4, adenine sulphate]
[1]; sulphate
  growth of germinated plantlets: enhanced the growth of germinated plantlets
[2]; addition to callus induction medium
  type of callus induced: induction of greenish compact callus that becomes non-embryogenic
[3]; 13.6 μM added
  effect on somatic embryo development: stimulated the process of somatic embryo development

## O=C(O)Cc1c[nH]c2ccccc12 [IAA, indole-3-acetic acid]
[1]
  germination of somatic embryos: not effective
[2]; [6]
  induction of embryogenic callus: induced only non-embryogenic callus

## c1coc(CNc2ncnc3[nH]cnc23)c1 [KN, kinetin]
[1]
  growth of germinated plantlets: enhanced the growth of germinated plantlets
[3]; MS medium with KN 2.3 μM and IBA 1.0 μM
  development of somatic embryos: developed
[3]; MS medium with KN 9.3 μM
  induction of embryogenic callus from leaf explants: induced

## O=C(O)CCCc1c[nH]c2ccccc12 [IBA, indole-3-butyric acid]
[1]
  germination of somatic embryos: effective; also recorded: occurred
[2]; [6]
  induction of embryogenic callus: induced only non-embryogenic callus

## c1ccc(CNc2ncnc3nc[nH]c23)cc1 [BA, 6-benzylaminopurine]
[1]
  growth of germinated plantlets: enhanced the growth of germinated plantlets

## O=C(O)Cc1cccc2ccccc12 [NAA]
[1]
  germination of somatic embryos: not effective

## O=C(Nc1ccccc1)Nc1cnns1 [TDZ, thidiazuron]
[1]
  growth of germinated plantlets: enhanced the growth of germinated plantlets

## COc1cc2c(c(OC)c1OC)-c1ccc(OC)c(=O)cc1[C@@H](NC(C)=O)CC2 [colchicines, colchicine]
[4]; 0.1-1% tested, three days treatment of embryogenic callus
  most effective concentration for production of double haploid plantlets: 0.5%
[4]; concentration above 0.5%
  effect on callus at higher concentration: callus become brown and died
[4]; plantlets from treated embryogenic callus
  morphological characters of treated plantlets: like double haploid

## O=C(O)COc1ccc(Cl)cc1Cl [2,4-D, 2,4-dichlorophenoxyacetic acid]
[2]; MS medium supplemented with 2,4-D, dark conditions
  induction of embryogenic callus: induced embryogenic callus; also recorded: vital
[2]; MS medium supplemented with 2,4-D, in the presence of light
  induction of embryogenic callus: not result in the induction of embryogenic callus
[2]; [6]
  induction of embryogenic callus: effective in inducing embryogenic callus
[5]; MS medium containing 2,4-D
  somatic embryo development (globular, heart, torpedo and cotyledon-shaped): effective
[5]; continuous culture in MS medium containing 2,4-D
  outcome of continuous culture of somatic embryos: abnormal somatic embryo formation without germination
